IC50 data for 24 molecules are collected here from patent EP3154958B1, “PHOSPHATIDYLINOSITOL 3-KINASE INHIBITORS” (Gilead Sciences, Inc., priority 2014, dated 2015).

What all share (assay type): biochemical
For one assay, the target named is T1, PI3Kβ (Homo sapiens, UniProt P42338).
T1 construct: made in house
Description: TR-FRET enzymatic activity assay, PI3Kβ. The conditions noted are these: recombinant heterodimeric PI3Kβ 25-50 pM, 2× Km ATP, 30 minutes at 25°C. The method, then: (§1) The compounds of formula (I) were characterized for their enzymatic activity against the PI3K isoforms. The activities were measured using a time-resolved fluorescence resonance energy transfer (TR-FRET) assay.
In general terms: Time-resolved FRET reads energy transfer from a long-lived donor to a nearby acceptor.

In a further assay the target is T2, PI3Kγ (Homo sapiens, UniProt P48736).
T2 construct: made in house
Description: TR-FRET enzymatic activity assay, PI3Kγ. The conditions noted are these: recombinant heterodimeric PI3Kγ 2 nM, 2× Km ATP, 30 minutes at 25°C. The protocol: as §1

The target of the next assay is T3, PI3Kδ (Homo sapiens, UniProt O00329).
T3 construct: made in house
Description: TR-FRET enzymatic activity assay, PI3Kδ. The conditions noted are these: recombinant heterodimeric PI3Kδ 25-50 pM, 2× Km ATP, 30 minutes at 25°C. The protocol:
as §1

A value given as a limit tells only on which side of the number the result lay.

T1 sequence (P42338 whole entry): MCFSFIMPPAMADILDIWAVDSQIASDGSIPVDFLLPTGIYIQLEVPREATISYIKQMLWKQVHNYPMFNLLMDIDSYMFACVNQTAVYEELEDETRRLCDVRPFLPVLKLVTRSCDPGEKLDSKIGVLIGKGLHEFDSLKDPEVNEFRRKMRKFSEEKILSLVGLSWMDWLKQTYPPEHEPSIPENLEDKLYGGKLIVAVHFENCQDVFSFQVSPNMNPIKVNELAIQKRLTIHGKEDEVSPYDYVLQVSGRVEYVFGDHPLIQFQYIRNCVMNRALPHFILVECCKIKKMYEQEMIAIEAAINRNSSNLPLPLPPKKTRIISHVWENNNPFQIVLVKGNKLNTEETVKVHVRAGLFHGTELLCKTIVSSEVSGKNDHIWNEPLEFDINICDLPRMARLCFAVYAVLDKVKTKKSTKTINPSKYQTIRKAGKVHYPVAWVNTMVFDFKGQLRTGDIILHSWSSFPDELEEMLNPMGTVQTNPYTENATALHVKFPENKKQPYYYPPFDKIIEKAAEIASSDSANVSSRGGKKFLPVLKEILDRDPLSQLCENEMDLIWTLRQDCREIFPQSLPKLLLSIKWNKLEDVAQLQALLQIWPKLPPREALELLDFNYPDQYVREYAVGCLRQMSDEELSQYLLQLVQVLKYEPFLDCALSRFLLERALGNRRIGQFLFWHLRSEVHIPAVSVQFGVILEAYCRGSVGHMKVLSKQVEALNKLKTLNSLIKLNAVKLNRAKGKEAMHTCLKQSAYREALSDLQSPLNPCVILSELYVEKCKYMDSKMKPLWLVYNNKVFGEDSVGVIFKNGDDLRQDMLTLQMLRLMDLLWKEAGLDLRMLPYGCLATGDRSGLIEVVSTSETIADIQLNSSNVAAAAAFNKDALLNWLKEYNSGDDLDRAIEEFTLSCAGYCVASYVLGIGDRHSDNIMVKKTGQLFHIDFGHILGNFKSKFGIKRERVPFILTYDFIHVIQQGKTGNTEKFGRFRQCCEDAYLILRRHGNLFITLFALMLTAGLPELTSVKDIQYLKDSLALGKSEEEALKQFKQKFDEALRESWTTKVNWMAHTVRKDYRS
T1 sequence (P27986 whole entry partner): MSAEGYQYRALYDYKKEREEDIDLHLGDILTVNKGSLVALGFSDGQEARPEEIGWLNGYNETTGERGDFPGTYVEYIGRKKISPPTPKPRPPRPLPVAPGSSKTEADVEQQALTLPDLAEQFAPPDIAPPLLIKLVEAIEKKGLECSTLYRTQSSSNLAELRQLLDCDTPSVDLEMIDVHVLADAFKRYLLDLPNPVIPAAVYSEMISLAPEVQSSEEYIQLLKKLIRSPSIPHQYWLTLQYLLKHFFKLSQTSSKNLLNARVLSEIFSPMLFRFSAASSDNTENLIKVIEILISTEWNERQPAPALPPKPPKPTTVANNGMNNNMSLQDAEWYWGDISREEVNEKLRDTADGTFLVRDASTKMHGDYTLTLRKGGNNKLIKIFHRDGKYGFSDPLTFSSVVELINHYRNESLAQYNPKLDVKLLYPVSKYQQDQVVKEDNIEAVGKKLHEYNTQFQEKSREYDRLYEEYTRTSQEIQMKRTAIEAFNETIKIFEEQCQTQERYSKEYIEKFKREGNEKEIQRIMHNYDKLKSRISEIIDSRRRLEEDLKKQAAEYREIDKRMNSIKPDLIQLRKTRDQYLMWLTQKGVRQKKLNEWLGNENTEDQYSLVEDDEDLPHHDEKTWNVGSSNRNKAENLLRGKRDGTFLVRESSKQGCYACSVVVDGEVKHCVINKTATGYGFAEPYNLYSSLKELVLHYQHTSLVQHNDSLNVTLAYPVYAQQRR
T3 sequence (O00329 whole entry): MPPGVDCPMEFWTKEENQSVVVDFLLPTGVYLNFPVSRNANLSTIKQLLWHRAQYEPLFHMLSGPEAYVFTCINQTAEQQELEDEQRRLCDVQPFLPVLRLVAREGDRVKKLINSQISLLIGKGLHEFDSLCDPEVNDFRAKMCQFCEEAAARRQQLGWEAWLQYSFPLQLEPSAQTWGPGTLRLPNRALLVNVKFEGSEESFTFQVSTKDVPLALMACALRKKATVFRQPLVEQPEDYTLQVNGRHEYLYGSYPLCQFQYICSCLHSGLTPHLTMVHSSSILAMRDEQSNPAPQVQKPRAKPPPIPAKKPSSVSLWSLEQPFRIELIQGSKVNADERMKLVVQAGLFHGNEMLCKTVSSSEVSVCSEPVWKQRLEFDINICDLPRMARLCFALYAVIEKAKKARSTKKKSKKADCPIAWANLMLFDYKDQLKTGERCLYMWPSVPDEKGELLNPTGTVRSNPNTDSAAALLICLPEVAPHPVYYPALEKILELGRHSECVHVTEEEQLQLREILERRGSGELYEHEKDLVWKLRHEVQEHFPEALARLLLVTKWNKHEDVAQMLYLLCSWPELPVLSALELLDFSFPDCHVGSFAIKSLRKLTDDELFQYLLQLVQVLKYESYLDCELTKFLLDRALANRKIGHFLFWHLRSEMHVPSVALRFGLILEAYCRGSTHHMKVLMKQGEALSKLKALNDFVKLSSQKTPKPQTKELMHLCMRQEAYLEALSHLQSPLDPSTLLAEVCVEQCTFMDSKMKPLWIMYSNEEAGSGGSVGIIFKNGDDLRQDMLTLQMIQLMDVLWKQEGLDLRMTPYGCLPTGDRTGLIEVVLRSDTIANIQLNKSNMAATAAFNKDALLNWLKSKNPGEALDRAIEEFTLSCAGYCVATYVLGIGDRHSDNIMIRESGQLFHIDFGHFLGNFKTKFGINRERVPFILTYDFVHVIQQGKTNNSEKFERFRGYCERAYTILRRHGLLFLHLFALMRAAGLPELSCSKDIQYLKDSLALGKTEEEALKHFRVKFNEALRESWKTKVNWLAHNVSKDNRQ
T3 sequence (P27986 whole entry partner): as the sequence (P27986 whole entry partner) above
T2 sequence (P48736 whole entry): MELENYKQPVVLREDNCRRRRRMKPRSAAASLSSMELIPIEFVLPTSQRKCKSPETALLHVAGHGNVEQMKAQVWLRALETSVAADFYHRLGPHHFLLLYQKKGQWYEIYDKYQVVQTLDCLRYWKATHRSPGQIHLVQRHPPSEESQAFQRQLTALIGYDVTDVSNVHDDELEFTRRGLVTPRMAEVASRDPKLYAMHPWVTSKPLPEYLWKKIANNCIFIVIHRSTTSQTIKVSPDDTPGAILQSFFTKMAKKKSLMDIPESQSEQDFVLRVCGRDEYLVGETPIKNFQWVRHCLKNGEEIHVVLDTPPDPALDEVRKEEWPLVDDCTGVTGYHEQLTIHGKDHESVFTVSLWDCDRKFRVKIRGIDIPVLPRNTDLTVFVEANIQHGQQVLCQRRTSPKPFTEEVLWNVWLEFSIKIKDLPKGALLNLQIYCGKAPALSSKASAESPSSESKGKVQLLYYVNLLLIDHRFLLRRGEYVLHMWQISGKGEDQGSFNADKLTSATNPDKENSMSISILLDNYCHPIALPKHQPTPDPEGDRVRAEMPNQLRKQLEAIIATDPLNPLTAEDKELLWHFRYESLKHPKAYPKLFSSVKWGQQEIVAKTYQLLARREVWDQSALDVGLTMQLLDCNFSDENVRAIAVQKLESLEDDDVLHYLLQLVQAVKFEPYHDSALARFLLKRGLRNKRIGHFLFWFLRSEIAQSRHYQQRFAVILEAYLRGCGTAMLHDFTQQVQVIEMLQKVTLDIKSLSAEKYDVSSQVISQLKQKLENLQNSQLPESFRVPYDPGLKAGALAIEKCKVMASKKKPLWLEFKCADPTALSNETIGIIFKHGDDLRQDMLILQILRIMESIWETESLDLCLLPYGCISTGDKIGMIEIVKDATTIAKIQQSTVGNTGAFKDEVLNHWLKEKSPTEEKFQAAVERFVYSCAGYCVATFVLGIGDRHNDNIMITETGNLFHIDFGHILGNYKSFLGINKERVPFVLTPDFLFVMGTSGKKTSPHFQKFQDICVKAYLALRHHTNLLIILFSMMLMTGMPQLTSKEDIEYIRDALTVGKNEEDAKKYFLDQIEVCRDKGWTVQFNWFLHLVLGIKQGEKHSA
T2 sequence (Q8WYR1 whole entry partner): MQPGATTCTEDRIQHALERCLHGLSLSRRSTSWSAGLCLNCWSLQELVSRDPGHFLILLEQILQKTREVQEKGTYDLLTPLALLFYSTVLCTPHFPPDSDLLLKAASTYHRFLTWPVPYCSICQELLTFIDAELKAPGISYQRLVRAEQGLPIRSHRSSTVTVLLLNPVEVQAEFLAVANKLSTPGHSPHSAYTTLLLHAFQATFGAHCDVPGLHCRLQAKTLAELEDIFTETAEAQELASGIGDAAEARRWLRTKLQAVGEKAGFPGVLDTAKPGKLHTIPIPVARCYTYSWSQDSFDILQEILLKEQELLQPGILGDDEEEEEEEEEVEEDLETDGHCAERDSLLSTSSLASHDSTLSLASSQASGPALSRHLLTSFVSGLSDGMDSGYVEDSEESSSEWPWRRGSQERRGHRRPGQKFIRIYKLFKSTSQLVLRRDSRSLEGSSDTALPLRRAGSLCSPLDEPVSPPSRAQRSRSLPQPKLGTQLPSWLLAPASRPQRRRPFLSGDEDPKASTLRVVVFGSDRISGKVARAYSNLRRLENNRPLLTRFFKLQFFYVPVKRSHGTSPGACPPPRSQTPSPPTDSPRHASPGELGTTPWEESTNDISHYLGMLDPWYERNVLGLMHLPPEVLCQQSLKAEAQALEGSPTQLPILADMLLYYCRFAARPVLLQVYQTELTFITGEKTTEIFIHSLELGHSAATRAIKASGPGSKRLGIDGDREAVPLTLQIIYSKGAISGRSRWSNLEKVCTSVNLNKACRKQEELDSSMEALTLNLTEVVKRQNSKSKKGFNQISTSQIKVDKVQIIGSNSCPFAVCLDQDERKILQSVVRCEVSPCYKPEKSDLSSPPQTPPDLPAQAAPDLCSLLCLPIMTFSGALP

For `C[C@H](Nc1nc(N)nc(N)c1Cl)c1nc2cccc(Cl)c2c(=O)n1[C@@H]1CCCNCC1` [Compound 13, 3-((R)-azepan-4-yl)-5-chloro-2-((S)-1-((2,6-diamino-5-chloropyrimidin-4-yl)amino)ethyl)quinazolin-4(3H)-one], the IC50 (usually the concentration needed to halve the response being measured) is 180 nM at PI3Kβ, greater than 10000 nM on PI3Kγ and 33 nM at PI3Kδ.

Consider `C[C@H](Nc1ncnc2scnc12)c1nc2cccc(Cl)c2c(=O)n1C1CCNCC1` [Compound 18, (S)-5-chloro-3-(piperidin-4-yl)-2-(1-(thiazolo[5,4-d]pyrimidin-7-ylamino)ethyl)quinazolin-4(3H)-one], for which the IC50 on PI3Kβ was 63 nM; at PI3Kγ it was greater than 10000 nM; on PI3Kδ, 9 nM.

For the molecule `C[C@H](Nc1nc(N)nc(N)c1Cl)c1nc2c(F)ccc(Cl)c2c(=O)n1N1CCNCC1` [Compound 20, (S)-5-chloro-2-(1-((2,6-diamino-5-chloropyrimidin-4-yl)amino)ethyl)-8-fluoro-3-(piperazin-1-yl)quinazolin-4(3H)-one], the IC50 on PI3Kβ is 40 nM; on PI3Kγ it was greater than 10000 nM; at PI3Kδ it was 20 nM.

On to `Cc1nc(N)nc(N[C@@H](C)c2nc3c(F)ccc(Cl)c3c(=O)n2N2CCNCC2)c1C#N` [Compound 21, (S)-2-amino-4-((1-(5-chloro-8-fluoro-4-oxo-3-(piperazin-1-yl)-3,4-dihydroquinazolin-2-yl)ethyl)amino)-6-methylpyrimidine-5-carbonitrile], for which the half-maximal inhibitory concentration (IC50) on PI3Kβ was determined as 2 nM; at PI3Kγ, 890 nM; at PI3Kδ it was 0.7 nM.

As to `CC[C@H](Nc1nc(N)nc(N)c1C#N)c1nc2cccc(Cl)c2c(=O)n1C1CCNCC1` [Compound 22, (S)-2,4-diamino-6-((1-(5-chloro-4-oxo-3-(piperidin-4-yl)-3,4-dihydroquinazolin-2-yl)propyl)amino)pyrimidine-5-carbonitrile], the IC50 was 15 nM on PI3Kβ, greater than 10000 nM on PI3Kγ and 5 nM on PI3Kδ.

Consider `CC[C@H](Nc1nc(N)nc(C)c1C#N)c1nc2cccc(Cl)c2c(=O)n1C1CCNCC1` [Compound 23, (S)-2-amino-4-((1-(5-chloro-4-oxo-3-(piperidin-4-yl)-3,4-dihydroquinazolin-2-yl)propyl)amino)-6-methylpyrimidine-5-carbonitrile], for which the IC50 at PI3Kβ was 3 nM; on PI3Kγ, greater than 10000 nM; at PI3Kδ, 5 nM.

`Cc1nc(N)nc(N[C@@H](C)c2nc3cccc(Cl)c3c(=O)n2C2CCNCC2)c1C#N` [Compound 24, (S)-2-amino-4-((1-(5-chloro-4-oxo-3-(piperidin-4-yl)-3,4-dihydroquinazolin-2-yl)ethyl)amino)-6-methylpyrimidine-5-carbonitrile]: the IC50 was 2 nM at PI3Kβ, greater than 10000 nM at PI3Kγ and 3 nM on PI3Kδ.

Take `C[C@H](Nc1nc(N)nc(N)c1Cl)c1nc2cccc(Cl)c2c(=O)n1C1CCNCC1` [Compound 25, (S)-5-chloro-2-(1-((2,6-diamino-5-chloropyrimidin-4-yl)amino)ethyl)-3-(piperidin-4-yl)quinazolin-4(3H)-one]: the IC50 on PI3Kβ is 100 nM; at PI3Kγ, greater than 10000 nM; at PI3Kδ it was 25 nM.

Consider `C[C@H](Nc1nc(N)nc(N)c1C#N)c1nc2cccc(Cl)c2c(=O)n1C1CCNCC1` [Compound 26, (S)-2,4-diamino-6-((1-(5-chloro-4-oxo-3-(piperidin-4-yl)-3,4-dihydroquinazolin-2-yl)ethyl)amino)pyrimidine-5-carbonitrile], for which the IC50 is 2 nM on PI3Kβ, greater than 10000 nM on PI3Kγ and 2 nM at PI3Kδ.

For the molecule `C[C@H](Nc1nc(N)nc(N)c1C#N)c1nc2cccc(Cl)c2c(=O)n1[C@H]1CCCNC1` [Compound 28, 2,4-diamino-6-(((S)-1-(5-chloro-4-oxo-3-((S)-piperidin-3-yl)-3,4-dihydroquinazolin-2-yl)ethyl)amino)pyrimidine-5-carbonitrile], the IC50 on PI3Kβ was found to be 170 nM; at PI3Kγ it was 6400 nM; on PI3Kδ, 22 nM.

As to `C[C@H](Nc1nc(N)nc(N)c1C#N)c1nc2cccc(Cl)c2c(=O)n1C1CNC1` [Compound 29, (S)-2,4-diamino-6-((1-(3-(azetidin-3-yl)-5-chloro-4-oxo-3,4-dihydroquinazolin-2-yl)ethyl)amino)pyrimidine-5-carbonitrile], the figures for the concentration for half-maximal inhibition (IC50) at PI3Kβ, on PI3Kγ and on PI3Kδ were 91 nM, 3100 nM and 31 nM, respectively.

In the case of `C[C@H](Nc1nc(N)nc(N)c1C#N)c1nc2cccc(Cl)c2c(=O)n1[C@H]1CCNC1` [Compound 30, 2,4-diamino-6-(((S)-1-(5-chloro-4-oxo-3-((S)-pyrrolidin-3-yl)-3,4-dihydroquinazolin-2-yl)ethyl)amino)pyrimidine-5-carbonitrile], the IC50 is 350 nM on PI3Kβ, greater than 10000 nM on PI3Kγ and 140 nM on PI3Kδ.

`C[C@H](Nc1nc(N)nc(N)c1C#N)c1nc2cccc(Cl)c2c(=O)n1[C@@H]1CCNC1` [Compound 31, 2,4-diamino-6-(((S)-1-(5-chloro-4-oxo-3-((R)-pyrrolidin-3-yl)-3,4-dihydroquinazolin-2-yl)ethyl)amino)pyrimidine-5-carbonitrile]: the IC50 on PI3Kβ was 78 nM; on PI3Kγ, greater than 10000 nM; at PI3Kδ, 19 nM.

As to `C[C@H](NC(=O)c1nc(Cl)cnc1N)c1nc2cccc(Cl)c2c(=O)n1N1CCNCC1` [Compound 32, (S)-3-amino-6-chloro-N-(1-(5-chloro-4-oxo-3-(piperazin-1-yl)-3,4-dihydroquinazolin-2-yl)ethyl)pyrazine-2-carboxamide], the IC50 on PI3Kβ is 32 nM; on PI3Kγ, greater than 10000 nM; on PI3Kδ, 150 nM.

With `C[C@H](NC(=O)c1nc(Cl)c(N)nc1N)c1nc2cccc(Cl)c2c(=O)n1N1CCNCC1` [Compound 33, (S)-3,5-diamino-6-chloro-N-(1-(5-chloro-4-oxo-3-(piperazin-1-yl)-3,4-dihydroquinazolin-2-yl)ethyl)pyrazine-2-carboxamide], the IC50 at PI3Kβ is 4 nM; at PI3Kγ it was 7400 nM; at PI3Kδ it was 14 nM.

For the molecule `C[C@H](Nc1ncnc2ccoc12)c1nc2cccc(Cl)c2c(=O)n1N1CCNCC1` [Compound 34, (S)-5-chloro-2-(1-(furo[3,2-d]pyrimidin-4-ylamino)ethyl)-3-(piperazin-1-yl)quinazolin-4(3H)-one], the IC50 on PI3Kβ was 83 nM; on PI3Kγ, greater than 10000 nM; on PI3Kδ, 10 nM.

In the case of `C[C@H](Nc1ncnc2scc(Cl)c12)c1nc2cccc(Cl)c2c(=O)n1N1CCNCC1` [Compound 35, (S)-5-chloro-2-(1-((5-chlorothieno[2,3-d]pyrimidin-4-yl)amino)ethyl)-3-(piperazin-1-yl)quinazolin-4(3H)-one], the IC50 at PI3Kβ was 570 nM; at PI3Kγ, greater than 10000 nM; at PI3Kδ it was 93 nM.

Take `C[C@H](NC(=O)c1c(N)nn2cccnc12)c1nc2cccc(Cl)c2c(=O)n1N1CCNCC1` [Compound 36, (S)-2-amino-N-(1-(5-chloro-4-oxo-3-(piperazin-1-yl)-3,4-dihydroquinazolin-2-yl)ethyl)pyrazolo[1,5-a]pyrimidine-3-carboxamide]: the IC50 on PI3Kβ came to 6 nM; at PI3Kγ it was 5700 nM; on PI3Kδ it was 56 nM.

For the molecule `C[C@H](Nc1ncnc(N)c1Cl)c1nc2cccc(Cl)c2c(=O)n1N1CCNCC1` [Compound 37, (S)-2-(1-((6-amino-5-chloropyrimidin-4-yl)amino)ethyl)-5-chloro-3-(piperazin-1-yl)quinazolin-4(3H)-one], the IC50 on PI3Kβ was 39 nM; on PI3Kγ, greater than 10000 nM; on PI3Kδ, 3 nM.

In the case of `C[C@H](Nc1nc(N)nc(N)c1C#N)c1nc2cccc(Cl)c2c(=O)n1C1CCNCC1(F)F` (stereo partly drawn) [Compound 38, 2,4-diamino-6-(((1S)-1-(5-chloro-3-(3,3-difluoropiperidin-4-yl)-4-oxo-3,4-dihydroquinazolin-2-yl)ethyl)amino)pyrimidine-5-carbonitrile], the IC50 at PI3Kβ came out at 220 nM; at PI3Kγ, 1500 nM; at PI3Kδ, 6 nM.

Consider `C[C@H](Nc1nc(N)nc(N)c1C#N)c1nc2c(F)ccc(F)c2c(=O)n1N1CCNCC1` [Compound 39, (S)-2,4-diamino-6-((1-(5,8-difluoro-4-oxo-3-(piperazin-1-yl)-3,4-dihydroquinazolin-2-yl)ethyl)amino)pyrimidine-5-carbonitrile], for which the IC50 was 4 nM at PI3Kβ, 5400 nM at PI3Kγ and 3 nM at PI3Kδ.

For `C[C@H](Nc1ncnn2ccnc12)c1nc2c(F)ccc(F)c2c(=O)n1N1CCNCC1` [Compound 40, (S)-5,8-difluoro-2-(1-(imidazo[2,1-f][1,2,4]triazin-4-ylamino)ethyl)-3-(piperazin-1-yl)quinazolin-4(3H)-one], the values for the IC50 at PI3Kβ, on PI3Kγ and at PI3Kδ were 200 nM, greater than 10000 nM and 26 nM, respectively.

As to `O=c1c2c(F)ccc(F)c2nc([C@@H](Nc2ncnn3ccnc23)C2CC2)n1N1CCNCC1` [Compound 41, (S)-2-(cyclopropyl(imidazo[2,1-f][1,2,4]triazin-4-ylamino)methyl)-5,8-difluoro-3 - (piperazin-1-yl)quinazolin-4(3H)-one], the 50% inhibitory concentration (IC50) at PI3Kβ was 210 nM; at PI3Kγ, greater than 10000 nM; on PI3Kδ it was 24 nM.

Consider `CC[C@H](Nc1ncnn2ccnc12)c1nc2cccc(Cl)c2c(=O)n1N1CCNCC1` [Compound 42, (S)-5-chloro-2-(1-(imidazo[2,1-f][1,2,4]triazin-4-ylamino)propyl)-3-(piperazin-1-yl)quinazolin-4(3H)-one], for which the IC50 on PI3Kβ is 45 nM; at PI3Kγ, greater than 10000 nM; on PI3Kδ, 8 nM.
